Patent EP2088143A1, “Novel inhibitors of mycobacterium tuberculosis complex cytochrome P450 CYP121” (priority 2008, dated 2009)

Columns and labels:
CYP121 [1] = molecular target: T1, CYP121 (Mycobacterium tuberculosis, UniProt P9WPP7); assay: Co-crystallisation with CYP121 and X-ray structure of the complex; assay type: binding; settings: co-crystals; 0.2 mM cyclo(L-Tyr-L-Phe), 0.8 mM cyclo(L-Tyr-L-Ala)
Target sequence in this assay (P9WPP7 2-396 limits assumed): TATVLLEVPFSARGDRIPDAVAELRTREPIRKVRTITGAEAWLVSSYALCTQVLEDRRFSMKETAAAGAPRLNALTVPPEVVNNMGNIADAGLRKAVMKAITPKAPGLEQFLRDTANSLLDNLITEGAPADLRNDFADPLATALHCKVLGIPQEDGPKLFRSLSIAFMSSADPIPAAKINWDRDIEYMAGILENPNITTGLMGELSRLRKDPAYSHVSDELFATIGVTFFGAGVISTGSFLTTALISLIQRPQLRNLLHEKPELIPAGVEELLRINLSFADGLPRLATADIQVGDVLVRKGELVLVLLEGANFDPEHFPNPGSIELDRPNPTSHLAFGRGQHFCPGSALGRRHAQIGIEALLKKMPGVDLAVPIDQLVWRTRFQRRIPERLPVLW

CYP121 [2] = molecular target: T1, CYP121; assay: CYP121 enzyme assay: transformation of cyclodipeptide with electron transport chain and NADPH, RP-HPLC analysis; assay type: biochemical; settings: 30°C; for transformation of cyclodipeptide by CYP121: ~0.1 mM cyclodipeptide, 5 µM CYP121, electron transport chain, 0-60 min
Target sequence in this assay (P9WPP7 2-396 limits assumed): as above

CYP121 [3] = molecular target: T1, CYP121; assay: Spectral binding titration of CYP121 by cyclodipeptide (UV/Vis absorbance spectroscopy, type I binding); settings: 2 µM CYP121, Tris-HCl 50 mM pH 7.6 10% glycerol; ΔA388-ΔA416 versus cyclodipeptide concentration; mean of four experiments; read-out: binding constant (Ks)
CYP121 [4] = molecular target: T1, CYP121; assay: Inhibition of CYP121 activity: cyclo(L-Tyr-L-Tyr) transformation in the presence of added compound, RP-HPLC analysis; assay type: biochemical
Target sequence in this assay (P9WPP7 2-396 limits assumed): as above

[5] = molecular target: Mycobacterium tuberculosis cytochrome P450 CYP121 (Mycobacterium bovis BCG Pasteur (100% identical to Mycobacterium tuberculosis H37Rv)) (UniProt P9WPP7); assay: spectrally estimated dissociation constant (Ks); UV/Vis titration of 2 µM CYP121, ΔA388-ΔA416 fitted to a hyperbola
[6] = molecular target: Mycobacterium tuberculosis cytochrome P450 CYP121 (Mycobacterium bovis BCG Pasteur (100% identical to Mycobacterium tuberculosis H37Rv)) (UniProt P9WPP7); assay: cell-based or functional assay

Sequence of Mycobacterium tuberculosis cytochrome P450 CYP121 (Mycobacterium bovis BCG Pasteur (100% identical to Mycobacterium tuberculosis H37Rv)) (P9WPP7 whole entry): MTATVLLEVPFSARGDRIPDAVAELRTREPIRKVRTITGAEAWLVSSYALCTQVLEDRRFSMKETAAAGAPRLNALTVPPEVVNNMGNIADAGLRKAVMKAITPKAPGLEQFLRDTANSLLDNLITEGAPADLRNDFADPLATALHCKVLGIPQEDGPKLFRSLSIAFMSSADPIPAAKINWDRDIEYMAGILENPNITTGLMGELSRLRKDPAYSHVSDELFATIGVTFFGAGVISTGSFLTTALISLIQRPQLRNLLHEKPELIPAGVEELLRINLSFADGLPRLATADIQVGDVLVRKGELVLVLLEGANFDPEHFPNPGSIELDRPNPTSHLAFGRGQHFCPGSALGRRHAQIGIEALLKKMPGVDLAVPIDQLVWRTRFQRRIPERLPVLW

Compound: C[C@@H]1NC(=O)[C@H](Cc2ccc(O)cc2)NC1=O [cyclo(L-Tyr-L-Ala)]
- binding to CYP121 (crystal structure of the complex) (CYP121 [1]): bind to CYP121

Compound: O=C1N[C@@H](Cc2ccc(O)cc2)C(=O)N[C@H]1Cc1ccc(O)cc1 [cyclo(L-Tyr-L-Tyr)]
- time to complete conversion of cyclo(L-Tyr-L-Tyr) by CYP121 (CYP121 [2]; no inhibitor added): less than 30 min
- rate of cyclo(L-Tyr-L-Tyr) transformation (CYP121 [2]; in vitro conditions, exogenous electron transport chain, NADPH): 3.8 nmoles/min/nmole of CYP121
- transformation of cyclodipeptide by CYP121 (CYP121 [2]; NADPH): complete consumption

Compound: O=C1N[C@@H](Cc2c[nH]c3ccccc23)C(=O)N[C@H]1Cc1ccc(O)cc1 [cyclo(L-Tyr-L-Trp)]
- transformation of cyclodipeptide by CYP121 (CYP121 [2]; NADPH): can be transformed by CYP121, albeit less efficiently than cyclo(L-Tyr-L-Tyr)
- Kd (CYP121 [3]): 63.4 ± 8.8 µM
- initial cyclo(L-Tyr-L-Tyr) detected after 60 min incubation (CYP121 [4]; 0.11 mM cyclo(L-Tyr-L-Tyr), 1.2 mM cyclo(L-Tyr-L-Trp), 60 min, 30°C, completely absent after 30 min without inhibitor): ~30%

Compound: O=C1N[C@@H](Cc2ccc(O)cc2)C(=O)N[C@H]1Cc1ccccc1 [cyclo(L-Tyr-L-Phe)]
- binding to CYP121 (crystal structure of the complex) (CYP121 [1]): bind to CYP121

Compound: cyclo(L-Tyr-L-Tyr) (peptide)
- Kd [5]: 27.6 µM
- rate of cyclo(L-Tyr-L-Tyr) transformation (nmoles/min/nmole of CYP121) [6]: 3.8

Compound: cyclo(L-Tyr-L-Trp) (peptide)
- inhibition of cyclo(L-Tyr-L-Tyr) transformation by CYP121 with 1.2 mM cyclo(L-Tyr-L-Trp) (RP-HPLC) [6]: 30

Compound: O=C1N[C@@H](Cc2ccc(O)c(O)c2)C(=O)N[C@H]1Cc1ccc(O)cc1 [cyclo(L-DOPA-L-Tyr), cyclo(L-3 or 5,4-dihydroxyphenylalanine-L-Tyr)]
- transformation of cyclodipeptide by CYP121 (CYP121 [2]; NADPH): no transformation was detected
- Kd (CYP121 [3]): 14.7 ± 1.5 µM
- inhibition of cyclo(L-Tyr-L-Tyr) transformation (CYP121 [4]; 1.2 mM added cyclodipeptide, 60 min incubation at 30°C): completely inhibits
